Where a name gives a salt, the structure may show the parent alone.
Key:
[1] = Photophysical characterization: fluorescence properties and fluorescence quantum yield (SPEX-fluorolog, relative to indocyanine green); type: physicochemical; conditions: formulation with Gd-complex perfluoroalkyl derivative (WO 97/26017 Ex. 33); for Fluorescence quantum yield: 2 μM in dye
Method: (§1) The determination of the absorption maxima and extinction coefficients was carried out with a Lambda 2-spectrometer (Perkin-Elmer Company). The fluorescence properties were determined on a SPEX-fluorolog (Instruments S. A. Company, photomultiplier Hamamatsu PM928, excitation 350W xenon lamp). the determination of the fluorescence quantum yield was carried out relative to indocyanine green (O=13% in DMSO) by excitation at 585 nm (dyes with p=2) or 685 nm (dyes with p=3), in each case of solutions of concentration 2 μM in dye, and correction with the spectral sensitivity of lamp and detector.

[2] = Photophysical characterization: absorption maxima and extinction coefficients (Lambda 2-spectrometer); type: physicochemical; conditions: formulation with Gd-complex perfluoroalkyl derivative (WO 97/26017 Ex. 33)
Method: as §1

[3] = in DMSO; cited from earlier work
[4] = dyes 7-14 table, 5 mol % of dye

| Fluorescence max. [1, 4] [nm] | Fluorescence quantum yield [1, 4] | Absorption max. [2, 4] [nm] | Extinction coefficient [2, 4] | Structure (SMILES) | further results |
| --- | --- | --- | --- | --- | --- |
| 788 | 0.13 | 754 | 118,800 L mol^−1 cm^−1 | CCN1C(=CC=CC=CC=CC2=[N+](CCCCS(=O)(=O)[O-])c3ccc(C(=O)NCCOCCC(F)(F)C(F)(F)C(F)(F)C(F)(F)C(F)(F)C(F)(F)C(F)(F)C(F)(F)F)cc3C2(C)C)C(C)(C)c2ccccc21 [Dye 12, 2-[5-(1-ethyl)-1,3-dihydro-3,3-dimethyl-2H-indol-2-ylidene)-1,3,5-heptatrienyl]-5-{N-[2-(3,3,4,4,5,5,6,6,7,7,8,8,9,9,10,10,10-heptadecafluorodecyloxy)-ethyl]-aminocarbonyl}-3,3-dimethyl-1-(4-sulfobutyl)-3H-indolium, internal salt, sodium salt] |  |
| 684 | 0.16 | 650 | 150,700 L mol^−1 cm^−1 | CCN1C(=CC=CC=CC2=[N+](CCCCS(=O)(=O)[O-])c3ccc(C(=O)N(CCOCCC(F)(F)C(F)(F)C(F)(F)C(F)(F)C(F)(F)C(F)(F)C(F)(F)C(F)(F)F)CC(O)CO)cc3C2(C)C)C(C)(C)c2ccccc21 (stereo not shown) [Dye 13, 2-[5-(1-ethyl)-1,3-dihydro-3,3-dimethyl-2H-indol-2-ylidene)-1,3-pentatrienyl]-5-{N-[2-(3,3,4,4,5,5,6,6,7,7,8,8,9,9,10,10,10-heptadecafluorodecyloxy)ethyl]-N-(2,3-dihydroxypropyl)aminocarbonyl}-3,3-dimethyl-1-(4-sulfobutyl)-3H-indolium, internal salt, sodium salt] |  |
| 685 | 0.12 | 651 | 123,700 L mol^−1 cm^−1 | CC1(C)C(=CC=CC=CC2=[N+](CCCCS(=O)(=O)[O-])c3ccc(C(=O)N(CCOCCC(F)(F)C(F)(F)C(F)(F)C(F)(F)C(F)(F)C(F)(F)C(F)(F)C(F)(F)F)CC(O)CO)cc3C2(C)C)N(CCCCS(=O)(=O)[O-])c2ccccc21.[Na+] (stereo not shown) [Dye 9, 5-{N-[2-(3,3,4,4,5,5,6,6,7,7,8,8,9,9,10,10,10-heptadecafluorodecyloxy)ethyl]-N-(2,3-dihydroxypropyl)aminocarbonyl}-2-{7-[1,3-dihydro-3,3-dimethyl-1-(4-sulfobutyl)-2H-indol-2-ylidene]-1,3-pentadienyl}-3,3-dimethyl-1-(4-sulfobutyl)-3H-indolium, internal salt, sodium salt] | Fluorescence max. ([1]; 1 mol % of dye): 681 nm; Fluorescence quantum yield ([1]; 1 mol % of dye): 0.17; Fluorescence max. ([1]; 2 mol % of dye): 683 nm; Fluorescence quantum yield ([1]; 2 mol % of dye): 0.18; Fluorescence max. ([1]; 5 mol % of dye): 685 nm; Fluorescence quantum yield ([1]; 5 mol % of dye): 0.12; Fluorescence max. ([1]; 10 mol % of dye): 685 nm; Fluorescence quantum yield ([1]; 10 mol % of dye): 0.04; Absorption max. ([2]; 1 mol % of dye): 652 nm; Extinction coefficient ([2]; 1 mol % of dye): 132,000 L mol^−1 cm^−1; Absorption max. ([2]; 2 mol % of dye): 651 nm; Extinction coefficient ([2]; 2 mol % of dye): 130,200 L mol^−1 cm^−1; Absorption max. ([2]; 5 mol % of dye): 651 nm; Extinction coefficient ([2]; 5 mol % of dye): 123,700 L mol^−1 cm^−1; Absorption max. ([2]; 10 mol % of dye): 649 nm; Extinction coefficient ([2]; 10 mol % of dye): 110,900 L mol^−1 cm^−1 |
| 683 | 0.14 | 653 | 145,000 L mol^−1 cm^−1 | CCN1C(=CC=CC=CC2=[N+](CCCCS(=O)(=O)[O-])c3ccc(C(=O)NCCOCCC(F)(F)C(F)(F)C(F)(F)C(F)(F)C(F)(F)C(F)(F)C(F)(F)C(F)(F)F)cc3C2(C)C)C(C)(C)c2ccccc21 [Dye 11, 2-[5-(1-Ethyl)-1,3-dihydro-3,3-dimethyl-2H-indol-2-ylidene)-1,3-pentatrienyl]-5-{N-[2-(3,3,4,4,5,5,6,6,7,7,8,8,9,9,10,10,10-heptadecafluorodecyloxy)ethyl]-aminocarbonyl}-3,3-dimethyl-1-(4-sulfobutyl)-3H-indolium, internal salt, sodium salt] |  |
| 789 | 0.09 | 753 | 124,100 L mol^−1 cm^−1 | CCN1C(=CC=CC=CC=CC2=[N+](CCCCS(=O)(=O)[O-])c3ccc(C(=O)N(CCOCCC(F)(F)C(F)(F)C(F)(F)C(F)(F)C(F)(F)C(F)(F)C(F)(F)C(F)(F)F)CC(O)CO)cc3C2(C)C)C(C)(C)c2ccccc21 (stereo not shown) [Dye 14, 2-[5-(1-ethyl)-1,3-dihydro-3,3-dimethyl-2H-indol-2-ylidene)-1,3,5-heptatrienyl]-5-{N-[2-(3,3,4,4,5,5,6,6,7,7,8,8,9,9,10,10,10-heptadecafluorodecyloxy)-ethyl]-N-(2,3-dihydroxypropyl)aminocarbonyl}-3,3-dimethyl-1-(4-sulfobutyl)-3H-indolium, internal salt, sodium salt] |  |
|  |  |  |  | CC1(C)C(/C=C/C=C/C=C/C=C2\N(CCCCS(=O)(=O)O)c3ccc4ccccc4c3C2(C)C)=[N+](CCCCS(=O)(=O)[O-])c2ccc3ccccc3c21 [indocyanine green] | fluorescence quantum yield (reference standard) [3]: 13% |
